The record followed here is patent US9120785B2, “Pyridyl aminopyridines as Syk inhibitors” (Merck Sharp & Dohme Corp., priority 2011, dated 2015).

Like-named read-outs stand apart in the source and are kept apart here.

This experiment concerns the target recombinant human GST-Syk (Homo sapiens (Human), UniProt P43405). Put plainly: Homogeneous Time-Resolved Fluorescence (HTRF) assay for the recombinant human Syk enzyme. The settings on record: recombinant human GST-Syk 5 pM, ATP 25 μM. Type of experiment: biochemical. Here is the method:
Homogeneous Time-Resolved Fluorescence (HTRF) Assay for the Recombinant Human Syk Enzyme:
A recombinant GST-hSyk fusion protein was used to measure potency of compounds to inhibit human Syk activity. The recombinant human GST-Syk ([…] #08-176) (5 pM final concentration) was incubated with various concentrations of the inhibitor diluted in DMSO (0.1% final concentration) for 10 minutes at room temperature in 15 mM Tris-HCl (pH 7.5), 0.01% tween 20, 2 mM DTT in 384 well plate format. To initiate the reaction the biotinylated substrate peptide (250 nM final concentration) that contains the phosphorylation site for Syk was added with magnesium (5 mM final concentration) and ATP (25 μM final concentration). Final volume of the reaction was 10 μL. Phosphorylation of the peptide was allowed to proceed for 45 minutes at room temperature. To quench the reaction and detect the phosphorylated product, 2 nM of a Europium-anti-phosphotyrosine antibody (Perkin Elmer #AD0161) and 70 nM SA-APC (Perkin-Elmer #CR130-100) were added together in 15 mM Tris pH 7.5, 40 mM EDTA, 0.01% tween 20. Final volume of the quenching solution was 10 μL. The resulting HTRF signal was measured after 30 minutes on an EnVision (Perkin-Elmer) reader using a time-resolved fluorescence protocol.

Setting [1] is: class symbols, read-out: rhSyk activity (IC50).
The mark [2] stands for this setting: 10-dose titration, read-out: rhSyk (nM) IC50.

One may read the IC50 as the midpoint of a concentration-inhibition curve.

As for `Cc1ccnc(Nc2cc(C)cc(-c3cnc(C(C)(O)[C@H]4CC[C@H](C(=O)O)CC4)s3)n2)c1` (relative stereo) [Example 14-1, trans-4-[1-hydroxy-1-(5-{4-methyl-6-[(4-methylpyridin-2-yl)amino]pyridin-2-yl}-1,3-thiazol-2-yl)ethyl]cyclohexanecarboxylic acid], under setting [1], the IC50 is at most 100 nM.

As for `Cc1cc(Nc2cc(C(F)(F)F)ccn2)nc(-c2cnc(C(C)(O)C3CCC(C(=O)O)C(C)C3)s2)c1` (single isomer, unassigned) [Example 15-10, 4-{1-hydroxy-1-[5-(4-methyl-6-{[4-(trifluoromethyl)pyridin-2-yl]amino}pyridin-2-yl)-1,3-thiazol-2-yl]ethyl}-2-methylcyclohexanecarboxylic acid], under setting [1], the half-maximal inhibitory concentration (IC50) was at most 100 nM.

As for `Cc1cc(Nc2cc(C(F)(F)F)ccn2)nc(-c2cnc(C(C)(O)C3CCC(C(=O)O)C(C)C3)s2)c1` (single isomer, unassigned) [Example 15-2, 4-{1-hydroxy-1-[5-(4-methyl-6-{[4-(trifluoromethyl)pyridin-2-yl]amino}pyridin-2-yl)-1,3-thiazol-2-yl]ethyl}-2-methylcyclohexanecarboxylic acid], the IC50 under setting [1] was at most 100 nM.

As to `Cc1cc(Nc2cc(C(F)(F)F)ccn2)nc(-c2cnc(C(O)([C@H]3CC[C@H](C(=O)O)CC3)C(F)(F)F)s2)c1` (single isomer, unassigned) [Example 14-19, trans-4-{2,2,2-trifluoro-1-hydroxy-1-[5-(4-methyl-6-{[4-(trifluoromethyl)pyridin-2-yl]amino}pyridin-2-yl)-1,3-thiazol-2-yl]ethyl}cyclohexanecarboxylic acid], the half-maximal inhibitory concentration (IC50) under setting [1] is at most 100 nM.

In the case of `Cc1cc(Nc2cc(C(F)(F)F)ccn2)nc(-c2cnc(C(O)[C@H]3CC[C@H](C(=O)O)CC3)s2)c1` (single isomer, unassigned) [Example 14-28, trans-4-{hydroxy[5-(4-methyl-6-{[4-(trifluoromethyl)pyridin-2-yl]amino}pyridin-2-yl)-1,3-thiazol-2-yl]methyl}cyclohexanecarboxylic acid], the half-inhibitory concentration (IC50) by setting is: under setting [2], 1.1 nM; under setting [1], at most 100 nM.

For the molecule `Cc1cc(Nc2cc(C(F)F)ccn2)nc(-c2cnc(C(C)(O)[C@H]3CC[C@H](C(=O)O)CC3)s2)c1` (single isomer, unassigned) [Example 14-4, trans-4-{1-[5-(6-{[4-(difluoromethyl)pyridin-2-yl]amino}-4-methylpyridin-2-yl)-1,3-thiazol-2-yl]-1-hydroxyethyl}cyclohexanecarboxylic acid], the half-maximal inhibitory concentration (IC50) reads like this: under setting [2], 0.5 nM; under setting [1], at most 100 nM.

Turning to `Cc1cc(Nc2cc(C3CC3)ccn2)nc(-c2cnc(C(C)(O)[C@H]3CC[C@H](C(=O)O)CC3)s2)c1` (relative stereo) [Example 14-7, trans-4-[1-(5-{6-[(4-cyclopropylpyridin-2-yl)amino]-4-methylpyridin-2-yl}-1,3-thiazol-2-yl)-1-hydroxyethyl]cyclohexanecarboxylic acid], the concentration for half-maximal inhibition (IC50) under setting [1] is at most 100 nM.

Regarding `Cc1cc(Nc2cc(C(F)(F)F)ccn2)nc(-c2cnc(C(C)(O)C3CCC(C(=O)O)C(C)C3)s2)c1` (single isomer, unassigned) [Example 15-4, 4-{1-hydroxy-1-[5-(4-methyl-6-{[4-(trifluoromethyl)pyridin-2-yl]amino}pyridin-2-yl)-1,3-thiazol-2-yl]ethyl}-2-methylcyclohexanecarboxylic acid], the half-inhibitory concentration (IC50) under setting [1] was at most 100 nM.

For `Cc1cc(Nc2cc(C(F)(F)F)ccn2)nc(-c2cnc(C(C)(O)C3CCC(C(=O)O)C(C)C3)s2)c1` (centres unmarked) [Example 15-15, 4-{1-hydroxy-1-[5-(4-methyl-6-{[4-(trifluoromethyl)pyridin-2-yl]amino}pyridin-2-yl)-1,3-thiazol-2-yl]ethyl}-2-methylcyclohexanecarboxylic acid], the IC50 under setting [1] was at most 100 nM.
